Assay results published in patent US20250026765A1, “SPIROHETEROCYCLE DERIVATIVE HAVING SEROTONIN RECEPTOR BINDING ACTIVITY” (Shionogi & Co., Ltd., priority 2021, published 2025).
Read-outs that look alike come from different tables or passages of the source.

Tests used:
[1] = target: human recombinant 5-HT2C receptor (Homo sapiens (Human), UniProt P28335); assay: 5-HT2C receptor binding inhibition test ([3H]-Mesulergine); conditions: Jump-In HEK cell membrane, 37° C. 2 hours
How it was run: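 Radioligand displacement on HEK membranes expressing human recombinant 5-HT2C (0.5 μg/well), [3H]-mesulergine near its Kd, in pH 7.4 Tris-HCl buffer with NaCl, MgCl2, KCl, CaCl2 and 0.1% BSA, 2 h at 37° C. Bound radioactivity measured after GF/B filtration; non-specific binding defined with 500 μmol/L serotonin, Ki from dose-response curve.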

[2] = target: human ether-a-go-go related gene (hERG) channel (Homo sapiens (Human), UniProt Q12809); assay: hERG test (FluxOR II potassium channel assay, FLIPR); format: cell-based; conditions: CHO cells expressing hERG channel, thallium flux fluorescence, 10 minutes
Chain of human ether-a-go-go related gene (hERG) channel (Q12809 whole entry): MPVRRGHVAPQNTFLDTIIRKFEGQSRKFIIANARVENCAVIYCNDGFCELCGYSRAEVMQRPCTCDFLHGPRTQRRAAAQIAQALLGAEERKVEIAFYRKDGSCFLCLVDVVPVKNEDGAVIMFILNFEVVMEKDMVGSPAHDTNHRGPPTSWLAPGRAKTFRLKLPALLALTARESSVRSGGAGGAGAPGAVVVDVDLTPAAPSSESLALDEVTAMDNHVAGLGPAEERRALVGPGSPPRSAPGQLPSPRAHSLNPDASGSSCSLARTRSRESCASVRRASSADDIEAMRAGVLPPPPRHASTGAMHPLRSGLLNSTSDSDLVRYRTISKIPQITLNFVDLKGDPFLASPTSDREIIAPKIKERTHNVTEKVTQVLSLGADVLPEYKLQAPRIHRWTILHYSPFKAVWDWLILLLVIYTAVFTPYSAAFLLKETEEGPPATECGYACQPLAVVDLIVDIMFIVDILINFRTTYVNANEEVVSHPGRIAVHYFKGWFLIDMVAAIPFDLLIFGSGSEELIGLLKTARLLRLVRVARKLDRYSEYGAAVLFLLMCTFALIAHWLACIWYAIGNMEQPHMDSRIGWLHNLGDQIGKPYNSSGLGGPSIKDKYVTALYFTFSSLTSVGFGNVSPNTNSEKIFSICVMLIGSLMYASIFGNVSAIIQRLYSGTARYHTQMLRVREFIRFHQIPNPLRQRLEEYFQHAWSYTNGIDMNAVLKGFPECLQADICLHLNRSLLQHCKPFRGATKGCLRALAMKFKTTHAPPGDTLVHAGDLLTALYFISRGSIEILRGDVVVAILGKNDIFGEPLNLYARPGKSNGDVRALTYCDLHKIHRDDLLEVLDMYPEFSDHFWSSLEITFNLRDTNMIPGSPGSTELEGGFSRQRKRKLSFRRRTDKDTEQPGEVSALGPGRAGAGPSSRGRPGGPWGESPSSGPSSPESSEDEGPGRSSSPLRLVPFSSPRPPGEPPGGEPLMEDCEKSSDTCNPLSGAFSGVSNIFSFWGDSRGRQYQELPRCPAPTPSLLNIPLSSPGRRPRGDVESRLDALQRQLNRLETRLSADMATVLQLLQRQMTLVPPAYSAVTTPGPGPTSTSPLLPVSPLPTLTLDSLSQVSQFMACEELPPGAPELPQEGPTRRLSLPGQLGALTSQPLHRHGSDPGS
Experimental: Test Example 3: hERG Test
For the purpose of evaluating risk of an electrocardiogram QT interval prolongation of the compound of the present invention, effects of the compound are studied by evaluating the activity of potassium channel using CHO cells expressing human ether-a-go-go related gene (hERG) channel.
Evaluation is performed using a FluxORII Green Potassium IonCgannel Assay kit
(Invitrogen: Molecular Probes).
Cells are seeded in a 384-assay plate (8000 cells/well/40 μL) and incubated (37° C., […] overnight. After replacing the medium with a Wash buffer (1×HBSS, 20 mM HEPES) with a microplate washer, a fluorescent indicator is added to the medium and allowed to incubate (37° C., 5% CO2) for 1 hour for incorporation of the fluorescent indicator into cells.
A cell plate is placed on a cell-based kinetic assay system FLIPR (Molecular Devices, LLC.), and the compound is added to the cells so as to have a desired concentration and reacted for 10 minutes. When a mixed solution of potassium and thallium as a stimulator is added thereto, the potassium channel is opened, and thallium that flowed into the cells binds to the fluorescent indicator, so that the intracellular fluorescence signal increases, and the potassium channel current is detected as a fluorescence signal. For the inhibition rate at each concentration, the signal intensity when E-4031 is added to cells at a final concentration of 10.3 μmol/L is defined as an inhibition rate of 100%, and the signal intensity when DMSO is added to cells at a final concentration of 0.5% is defined as an inhibition rate of 0%. Then, the inhibition rate is calculated from the signal intensity at each concentration. IC50 is calculated from the inhibition rate at each concentration.

[3] = read-out: human serotonin 5-HT2C receptor binding activity Ki

Chain of human recombinant 5-HT2C receptor (P28335 33-458): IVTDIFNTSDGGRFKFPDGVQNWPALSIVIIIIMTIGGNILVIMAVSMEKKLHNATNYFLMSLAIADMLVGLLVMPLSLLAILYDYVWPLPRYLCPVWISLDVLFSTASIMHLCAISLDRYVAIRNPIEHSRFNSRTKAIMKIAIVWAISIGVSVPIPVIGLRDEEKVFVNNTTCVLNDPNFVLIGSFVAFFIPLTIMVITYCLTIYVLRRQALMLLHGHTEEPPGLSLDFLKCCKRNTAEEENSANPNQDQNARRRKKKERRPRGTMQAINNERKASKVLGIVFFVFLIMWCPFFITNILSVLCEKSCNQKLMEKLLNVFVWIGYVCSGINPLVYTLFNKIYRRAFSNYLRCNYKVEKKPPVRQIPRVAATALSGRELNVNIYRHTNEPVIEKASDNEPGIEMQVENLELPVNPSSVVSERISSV

Structure (SMILES): CC(C)COc1ccc(CN(Cc2coc(CF)n2)C2=NOC3(CCN(C)CC3)N2)cc1 [Compound I-067]
- Ki ([1]; read-out: h-5-HT2C Ki): < 10 nM
- Ki [1, 3]: 0.95 nM
- IC50 [2]: 16.3 µM

Structure (SMILES): CCCCOc1ccc(CN(Cc2coc(C)n2)C2=NOC3(CCN(C)CC3)N2)cc1 [Compound I-080]
- Ki ([1]; read-out: h-5-HT2C Ki): < 10 nM
- Ki [1, 3]: 0.579 nM
- IC50 [2]: > 52 µM

Structure (SMILES): Cc1nc(CN(Cc2ccc(OCC(F)(F)C(F)(F)F)cc2F)C2=NOC3(CCN(C)CC3)N2)co1 [Compound I-104]
- Ki [1, 3]: 0.578 nM
- IC50 [2]: 20.6 µM

Structure (SMILES): CCCCOc1ccc(CN(Cc2coc(CF)n2)C2=NOC3(CCN(C)CC3)N2)cc1 [Compound I-105]
- Ki [1, 3]: 1.13 nM
- IC50 [2]: 17.9 µM

Structure (SMILES): CCCCOc1ccc(CN(Cc2cnn(C)n2)C2=NOC3(CCN(C)CC3)N2)cc1 [Compound I-113]
- Ki [1, 3]: 1.6 nM
- IC50 [2]: > 52 µM

Structure (SMILES): CCCCOc1ccc(CN(Cc2coc(C)n2)C2=NOC3(CCN(C)CC3)N2)c(F)c1 [Compound I-114]
- Ki [1, 3]: 0.543 nM
- IC50 [2]: > 52 µM

Structure (SMILES): CCCCOc1ccc(CN(Cc2coc(C)n2)C2=NOC3(CCN(C)CC3)N2)cc1F [Compound I-115]
- Ki [1, 3]: 0.469 nM
- IC50 [2]: > 52 µM

Structure (SMILES): Cc1nc(CN(Cc2ccc(CCC(F)(F)F)cc2)C2=NOC3(CCN(C)CC3)N2)co1 [Compound I-125]
- Ki [1, 3]: 0.694 nM
- IC50 [2]: 20 µM

Structure (SMILES): Cc1nc(CN(Cc2ccc(OCC(C)C)cc2F)C2=NOC3(CCN(C)CC3)N2)co1 [Compound I-128]
- Ki [1, 3]: 0.374 nM
- IC50 [2]: > 52 µM
